Assay [1] has as its target human CYP11B1 (Homo sapiens (Human), UniProt P15538). Kind of assay: G-402 cellular enzyme assay, human CYP11B1 (cortisol release, HTRF). It is filed as cell-based. As to conditions: G-402 cells expressing human CYP11B1; 1 μM Deoxycortisol. The source says: (§1) Herein we identified the use of the G-402 cell line as a host cell to ectopically express (transiently or stably) enzymes of the CYP11 family. Specifically we developed stable G-402 cells expressing ectopically human CYP11B1, human CYP11B2, human CYP11A1, cynmolgus CYP11B1 or cynomolgus CYP11B2 enzyme activity. Importantly the identified cell line G-402 expresses co-factors (adrenodoxin and adrenodoxin reductase) important for the activity of the CYP11 family and no relevant enzyme activity of the CYP11 family (in comparison to H295R cells) was detected in these cells. Therefore the G-402 cell line is uniquely suited as a host cell for the ectopic expression of enzymes from the CYP11 family.
(§2) G-402 cells can be obtained from ATCC (CRL-1440) and were originally derived from a renal leiomyoblastoma.
(§3) The expression plasmids contains the ORF for either human/cyno CYP11B1 or CYP11B2 under the control of a suitable promoter (CMV-promoter) and a suitable resistance marker (neomycin). Using standard techniques the expression plasmid is transfected into G-402 cells and these cells are then selected for expressing the given resistance markers. Individual cell-clones are then selected and assessed for displaying the desired enzymatic activity using 11-Deoxycorticosterone (Cyp11B2) or 11-Deoxycortisol (Cyp11B1) as a substrate.
(§4) G-402 cells expressing CYP11 constructs were established as described above and maintained in McCoy's 5a Medium Modified, ATCC Catalog No. 30-2007 containing 10% FCS and 400 μg/ml G418 (Geneticin) at 37° C. under an atmosphere of 5% CO2/95% air. Cellular enzyme assays were performed in DMEM/F12 medium containing 2.5% charcoal treated FCS and appropriate concentration of substrate (0.3-10 uM 11-Deoxycorticosterone, 11-Deoxycortisol or Corticosterone). For assaying enzymatic activity, cells were plated onto 96 well plates and incubated for 16 h. An aliquot of the supernatant is then transferred and analyzed for the concentration of the expected product (Aldosterone for CYP11B2; Cortisol for CYP11B1). The concentrations of these steroids can be determined using HTRF assays from CisBio analyzing either Aldosterone or Cortisol.
(§5) Inhibition of the release of produced steroids can be used as a measure of the respective enzyme inhibition by test compounds added during the cellular enzyme assay. The dose dependent inhibition of enzymatic activity by a compound is calculated by means of plotting added inhibitor concentrations (x-axes) vs. measured steroid/product level (y-axes). The inhibition is then calculated by fitting the following 4-parameter sigmoidal function (Morgan-Mercer-Flodin (MMF) model) to the raw data points using the least squares method:
(§6) [formula] wherein, A is the maximum y value, B is the EC50 factor determined using XLFit, C is the minimum y value and D is the slope value.
(§7) EC50 values for compounds claimed herein were tested with the G402-based assay system described. Cyp11B2 enzyme activity was tested in presence of 1 μM Deoxycorticosterone and variable amounts of inhibitors; Cyp11B1 enzyme activity was tested in presence of 1 μM Deoxycortisol and variable amounts of inhibitors.

Assay [2] concerns the target human CYP11B2 (Homo sapiens (Human), UniProt P19099). Kind of assay: G-402 cellular enzyme assay, human CYP11B2 (aldosterone release, HTRF). As to conditions: G-402 cells expressing human CYP11B2; 1 μM Deoxycorticosterone. It is filed as cell-based.
Description: as §1, §2, §3, §4, §5, §6, §7
On the technique in general: Time-resolved FRET reads energy transfer from a long-lived donor to a nearby acceptor.

The subject of assay [3] is patients with primary aldosteronism. As to conditions: cited from earlier work.
For assay [4], the system named is rat model of chronic kidney disease. As to conditions: rat CKD model, cited from earlier work.

Here are results for 27 compounds from patent publication US9790217B2, “Pyridinyloxy- and phenyloxy-pyrazolyl compounds” (Hoffmann-La Roche Inc., priority 2014, dated 2017).

Chain of human CYP11B2 (P19099 25-503): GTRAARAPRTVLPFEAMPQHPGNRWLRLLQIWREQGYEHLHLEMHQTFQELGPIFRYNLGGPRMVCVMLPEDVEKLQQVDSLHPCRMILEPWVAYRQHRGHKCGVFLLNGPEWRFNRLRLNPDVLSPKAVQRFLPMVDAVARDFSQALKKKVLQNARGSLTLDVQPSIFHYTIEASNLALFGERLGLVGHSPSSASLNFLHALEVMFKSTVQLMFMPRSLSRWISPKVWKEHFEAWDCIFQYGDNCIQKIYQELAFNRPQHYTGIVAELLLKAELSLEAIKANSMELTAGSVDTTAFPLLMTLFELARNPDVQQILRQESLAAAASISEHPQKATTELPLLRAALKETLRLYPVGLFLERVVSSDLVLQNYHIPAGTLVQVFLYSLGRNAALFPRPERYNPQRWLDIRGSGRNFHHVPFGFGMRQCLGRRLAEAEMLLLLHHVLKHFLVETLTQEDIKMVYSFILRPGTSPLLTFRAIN
Chain of human CYP11B1 (P15538 25-503): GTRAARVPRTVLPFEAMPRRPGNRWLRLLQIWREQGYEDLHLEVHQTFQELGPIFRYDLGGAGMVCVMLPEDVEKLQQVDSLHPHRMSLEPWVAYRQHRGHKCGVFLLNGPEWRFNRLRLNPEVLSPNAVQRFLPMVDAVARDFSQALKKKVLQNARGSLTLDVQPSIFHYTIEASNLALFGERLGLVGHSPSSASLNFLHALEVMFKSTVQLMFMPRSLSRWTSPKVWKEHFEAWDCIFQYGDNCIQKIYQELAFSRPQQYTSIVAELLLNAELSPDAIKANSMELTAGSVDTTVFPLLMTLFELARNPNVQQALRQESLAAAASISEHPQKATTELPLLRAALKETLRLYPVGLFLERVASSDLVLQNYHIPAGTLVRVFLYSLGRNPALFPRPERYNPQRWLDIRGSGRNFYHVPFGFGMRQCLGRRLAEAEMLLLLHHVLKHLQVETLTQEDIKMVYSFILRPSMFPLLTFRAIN

What is called EC50 is the concentration that produces a half-maximal response. The low end stands for higher potency in that assay, the high end for lower potency in that assay. For the compound `Cn1cc(COc2cccc(-c3[nH]ncc3Oc3ccc(C#N)cc3)c2)cn1` [Example 56, 4-[[3-[3-[(1-Methylpyrazol-4-yl)methoxy]phenyl]-1H-pyrazol-4-yl]oxy]benzonitrile], the EC50 in assay [1] was found to be 93.6 nM; in assay [2] it was 9.5 nM.

Turning to `CCCCOc1cccc(-c2[nH]ncc2Oc2ccc(C#N)cc2)c1` [Example 59, 4-[[5-(3-Butoxyphenyl)-1H-pyrazol-4-yl]oxy]benzonitrile], the EC50 is 102 nM in assay [1] and 10.9 nM in assay [2].

Consider `COc1ccccc1CCc1[nH]ncc1Oc1ccc(C#N)cc1` [Example 60, 4-[[3-[2-(2-Methoxyphenyl)ethyl]-1H-pyrazol-4-yl]oxy]benzonitrile], for which the EC50 amounted to 1000 nM in assay [1] and 54 nM in assay [2].

In the case of `Cc1ncc(-c2[nH]ncc2Oc2ccc(C#N)cc2)s1` [Example 66, 4-[[3-(2-Methyl-1,3-thiazol-5-yl)-1H-pyrazol-4-yl]oxy]benzonitrile], the results for the EC50 in assay [1] and in assay [2] were 2060 nM and 68.5 nM, respectively.

In the case of `Cn1cc(-c2[nH]ncc2Oc2ccc(C#N)cc2)cn1` [Example 67, 4-[[3-(1-Methylpyrazol-4-yl)-1H-pyrazol-4-yl]oxy]benzonitrile], the values for the EC50 in assay [1] and in assay [2] were 3270 nM and 251 nM, respectively.

As to `N#Cc1ccc(Oc2cn[nH]c2-c2cnn(Cc3ccccc3)c2)cc1` [Example 68, 4-[[5-(1-Benzylpyrazol-4-yl)-1H-pyrazol-4-yl]oxy]benzonitrile], the EC50 in assay [1] turned out to be 2400 nM; in assay [2] it was 439 nM.

As for `N#Cc1ccc(Oc2cn[nH]c2-c2cccc(COc3cccc(F)n3)c2)cc1` [Example 69, 4-[[3-[3-[(6-Fluoropyridin-2-yl)oxymethyl]phenyl]-1H-pyrazol-4-yl]oxy]benzonitrile], the EC50 is 47.7 nM in assay [1] and 16.9 nM in assay [2].

As for `N#Cc1ccc(Oc2cn[nH]c2-c2cccc(COc3cccnc3)c2)cc1` [Example 70, 4-[[3-[3-(Pyridin-3-yloxymethyl)phenyl]-1H-pyrazol-4-yl]oxy]benzonitrile], the EC50 turned out to be 38.3 nM in assay [1] and 10.6 nM in assay [2].

Take `N#Cc1ccc(Oc2cn[nH]c2-c2cccc(C[n+]3cccc([O-])c3)c2)cc1` [Example 71, 1-[[3-[4-(4-Cyanophenoxy)-1H-pyrazol-3-yl]phenyl]methyl]pyridin-1-ium-3-olate]: the EC50 in assay [1] was found to be 5880 nM; in assay [2], 656 nM.

Consider `N#Cc1ccc(Oc2cn[nH]c2-c2cccc(Cn3ccc(=O)cc3)c2)cc1` [Example 72, 4-[[3-[3-[(4-Oxopyridin-1-yl)methyl]phenyl]-1H-pyrazol-4-yl]oxy]benzonitrile], for which the EC50 was found to be 19300 nM in assay [1] and 1630 nM in assay [2].

On to `N#Cc1ccc(Oc2cn[nH]c2-c2cccc(COc3cccc(Cl)n3)c2)cc1` [Example 73, 4-[[3-[3-[(6-Chloropyridin-2-yl)oxymethyl]phenyl]-1H-pyrazol-4-yl]oxy]benzonitrile], for which the results for the EC50 in assay [1] and in assay [2] were 411 nM and 104 nM, respectively.

On to `N#Cc1ccc(Oc2cn[nH]c2-c2cccc(CN3CC(F)(CO)C3)c2)cc1` [Example 74, 4-[[3-[3-[[3-Fluoro-3-(hydroxymethyl)azetidin-1-yl]methyl]phenyl]-1H-pyrazol-4-yl]oxy]benzonitrile], for which the figures for the EC50 in assay [1] and in assay [2] were 36.2 nM and 19.7 nM, respectively.

`N#Cc1ccc(Oc2cn[nH]c2-c2cccc(CN3CCOCC3)c2)cc1` [Example 75, 4-[[3-[3-(Morpholin-4-ylmethyl)phenyl]-1H-pyrazol-4-yl]oxy]benzonitrile]: the EC50 is 139 nM in assay [1] and 8.5 nM in assay [2].

Regarding `N#Cc1ccc(Oc2cn[nH]c2-c2ccccc2OCc2ccncc2)cc1` [Example 76, 4-[[3-[2-(Pyridin-4-ylmethoxy)phenyl]-1H-pyrazol-4-yl]oxy]benzonitrile], the values for the EC50 in assay [1] and in assay [2] were 6.8 nM and 0.2 nM, respectively.

With `N#Cc1ccc(Oc2cn[nH]c2-c2ccccc2OCc2cccnc2)cc1` [Example 77, 4-[[3-[2-(Pyridin-3-ylmethoxy)phenyl]-1H-pyrazol-4-yl]oxy]benzonitrile], the EC50 amounted to 11.4 nM in assay [1] and 0.3 nM in assay [2].

As to `N#Cc1ccc(Oc2cn[nH]c2-c2ccccc2O)cc1` [Example 78, 4-[[3-(2-Hydroxyphenyl)-1H-pyrazol-4-yl]oxy]benzonitrile], the EC50 in assay [1] came to 10.7 nM; in assay [2], 0.3 nM.

As for `N#Cc1ccc(Oc2cn[nH]c2-c2ccccc2OCc2ccccn2)cc1` [Example 79, 4-[[3-[2-(Pyridin-2-ylmethoxy)phenyl]-1H-pyrazol-4-yl]oxy]benzonitrile], the EC50 amounted to 2.5 nM in assay [1] and 0.2 nM in assay [2].

As for `Cn1cc(COc2ccccc2-c2[nH]ncc2Oc2ccc(C#N)cc2)cn1` [Example 80, 4-[[3-[2-[(1-Methylpyrazol-4-yl)methoxy]phenyl]-1H-pyrazol-4-yl]oxy]benzonitrile], the values for the EC50 in assay [1] and in assay [2] were 6.9 nM and 0.3 nM, respectively.

Regarding `Cn1nncc1COc1ccccc1-c1[nH]ncc1Oc1ccc(C#N)cc1` [Example 81, 4-[[3-[2-[(3-Methyltriazol-4-yl)methoxy]phenyl]-1H-pyrazol-4-yl]oxy]benzonitrile], the EC50 in assay [1] amounted to 171 nM; in assay [2], 2.5 nM.

In the case of `N#Cc1ccc(Oc2cn[nH]c2-c2ccccc2Cn2ccc(=O)cc2)cc1` [Example 83, 4-[[3-[2-[(4-Oxopyridin-1-yl)methyl]phenyl]-1H-pyrazol-4-yl]oxy]benzonitrile], the EC50 in assay [1] worked out at 2880 nM; in assay [2], 321 nM.

Take `N#Cc1ccc(Oc2cn[nH]c2-c2cccc(O)c2F)cc1` [Example 84, 4-[[3-(2-Fluoro-3-hydroxyphenyl)-1H-pyrazol-4-yl]oxy]benzonitrile]: the results for the EC50 in assay [1] and in assay [2] were 17.3 nM and 0.4 nM, respectively.

`N#Cc1ccc(Oc2cn[nH]c2-c2cccc(OCc3ccncc3)c2F)cc1` [Example 85, 4-[[3-[2-Fluoro-3-(pyridin-4-ylmethoxy)phenyl]-1H-pyrazol-4-yl]oxy]benzonitrile]: the values for the EC50 in assay [1] and in assay [2] were 5.2 nM and 0.3 nM, respectively.

In the case of `N#Cc1ccc(Oc2cn[nH]c2-c2cccc(OCc3ccnc(Cl)c3)c2F)cc1` [Example 86, 4-[[3-[3-[(2-Chloropyridin-4-yl)methoxy]-2-fluorophenyl]-1H-pyrazol-4-yl]oxy]benzonitrile], the EC50 came out at 28 nM in assay [1] and 4.3 nM in assay [2].

For `Cn1cc(C(=O)N2CCN(Cc3[nH]ncc3Oc3ccc(C#N)cc3)CC2)cn1` [Example 88, 4-[[5-[[4-(1-Methylpyrazole-4-carbonyl)piperazin-1-yl]methyl]-1H-pyrazol-4-yl]oxy]benzonitrile], the EC50 was found to be 25900 nM in assay [1] and 147 nM in assay [2].

As to `Cn1nncc1COc1c(Cl)cccc1-c1[nH]ncc1Oc1ccc(C#N)cc1` [Example 90, 4-[[3-[3-Chloro-2-[(3-methyltriazol-4-yl)methoxy]phenyl]-1H-pyrazol-4-yl]oxy]benzonitrile], the EC50 in assay [1] came to 1580 nM; in assay [2], 159 nM.

Regarding `N#Cc1ccc([C@H]2CCc3cncn32)c(F)c1` [LCI699], in assay [3], the blood pressure result is “mildly decreased” and the hypokalemia entry was “corrected”. Moreover, in assay [3] (oral), the circulating aldosterone levels result is “significantly lower”.

As to `CC(=O)S[C@@H]1CC2=CC(=O)CC[C@]2(C)[C@H]2CC[C@@]3(C)[C@@H](CC[C@@]34CCC(=O)O4)[C@H]12` [spironolactone], in assay [4] (FAD286 4 weeks, spironolactone 4 and 8 weeks of treatment), the plasma aldosterone entry is “increased”. In assay [4], the “angiotensin II and salt-stimulated PAI-1 mRNA expression in the aorta and the heart” value was “enhanced”; the “cardiac and aortic medial hypertrophy” value is given as “attenuated”; the “renal effects of angiotensin II and high salt (albuminuria, azotemia, renovascular hypertrophy, glomerular injury, PAI-1, osteopontin mRNA, tubulointerstitial fibrosis)” value was “prevented”.
